Measurements as given in patent US20260294890A1, “LONG-TERM PREVENTION AND/OR TREATMENT OF A DISEASE BY SLO-1 INHIBITORS” (Elanco Animal Health GmbH, priority 2023, published 2026).
Blank lines part the entries; values can stand above or below the compound they belong to.

Columns and labels:
[1] = Assay 1: half-life and plasma clearance upon intravenous administration to beagle dogs; format: in vivo; conditions: iv dose up to 0.3 mg/kg, Phoenix PK/PD (Example 1: internal tool); for clearance / half-life: dog, geometric mean; for half-life: read-out: Half-life (h/Form) iv, geometric mean (converted)
Experimental: Assay 1: Determination of Half-Life and Plasma Clearance of Compounds of the Invention Upon Administration to Beagle Dogs
Compounds according to the invention were administered as an intravenous (iv) dose (up to 0.3 mg/kg) to beagle dogs (minimum n=3). Blood samples were collected from these beagle dogs up to 168 h after intravenous administration and up to 3024 h after subcutaneous administration. A portion of each whole blood sample was processed to plasma. Compound concentrations were determined in plasma using LCMS/MS. Phoenix™ Pharmacokinetic and Pharmacodynamic (PK/PD) was used to determine half-life and plasma clearance values. Only for Example 1, an internal tool available to the inventors was used to determine the half-life and plasma clearance values.

Dirofilaria immitis [2] = assay: Assay 2: prevention test, Dirofilaria immitis heartworm infection in dogs (modified Knott and heartworm antigen tests)
Ancylostoma caninum [3] = assay: Assay 3: treatment of an existing hookworm infection in dogs (cohort A); format: in vivo; conditions: 30 mg/kg subcutaneous 15 days after infection
Experimental: (§1) 12 dogs were allocated to one of six groups in three cohorts. Each cohort comprised a negative control group (n=2) (‘Control group’) and a group (n=2) treated with the compound of Example 9 (‘Treatment group’).
(§2) Dogs in negative control groups were administered an equivalent volume of vehicle solution.
(§3) All dogs were infected with 100-300 hookworm (Ancylostoma caninum) 3rd-stage larvae (L3s) via oral gavage (W.A.A.V.P. Guidelines, First edition; Jacobs, D. E., A. Arakawa, C. H. Courtney, et al., 1994. Vet. Parasitol. 52: 179-202). The cohorts were treated as follows: • Cohort A: The compound of Example 9 or the vehicle solution was administered 15 days after infection with Ancylostoma caninum • Cohort B: The compound of Example 9 or the vehicle solution was administered 30 days prior to infection with Ancylostoma caninum • Cohort C: The compound of Example 9 or the vehicle solution was administered 60 days prior to infection with Ancylostoma caninum
(§4) Fecal egg counts (FECs, eggs per gram of feces) were obtained from each dog 15, 20, 25 and 30 days after hookworm infection.
(§5) Following the final FEC, dogs were dewormed with a commercial anthelmintic and feces were collected for 48 hours. Fecal output from each dog was soaked in water for a minimum of 30 minutes and processing through 250 μm, 150 μm and 38 μm sieves to recover expelled adult and immature hookworms. Expelled hookworms were preserved in fixative (5% formalin) and counted.
Cohort A was designed to evaluate effectiveness against patent adult hookworm infections present at the time of treatment with the compound of Example 9.

Ancylostoma caninum [4] = assay: Assay 3: residual efficacy against hookworm infection in dogs (cohorts B and C); format: in vivo; conditions: for % Reduction of Mean Fecal Egg Count / % Reduction of Mean Number of Recovered Hookworms: vs control; for Mean Number of Recovered Hookworms: after final FEC
Experimental: as §1, §2, §3, §4, §5

Dirofilaria immitis [5] = assay: Assay 2: residual protection test, second Dirofilaria immitis infection of dogs 90 days after treatment
[6] = cohort B, 30 mg/kg subcutaneous 30 days prior to infection, 15 days after infection
[7] = cohort B, 30 mg/kg subcutaneous 30 days prior to infection, 20 days after infection
[8] = cohort B, 30 mg/kg subcutaneous 30 days prior to infection, 25 days after infection
[9] = cohort B, 30 mg/kg subcutaneous 30 days prior to infection, 30 days after infection
[10] = cohort B, 30 mg/kg subcutaneous 30 days prior to infection
[11] = cohort C, 30 mg/kg subcutaneous 60 days prior to infection, 15 days after infection
[12] = cohort C, 30 mg/kg subcutaneous 60 days prior to infection, 20 days after infection
[13] = cohort C, 30 mg/kg subcutaneous 60 days prior to infection, 25 days after infection
[14] = cohort C, 30 mg/kg subcutaneous 60 days prior to infection, 30 days after infection
[15] = cohort C, 30 mg/kg subcutaneous 60 days prior to infection

Compound: CCc1c(C(=O)N[C@H]2CCOc3ccccc32)cnc2c(-c3cc(F)cc(F)c3F)c(F)ccc12 [Example 1, N-[(4S)-3,4-Dihydro-2H-chromen-4-yl]-4-ethyl-7-fluoro-8-(2,3,5-trifluorophenyl)quinoline-3-carboxamide]
- clearance ([1]; plasma): 10 mL/min/kg
- half-life ([1]; plasma): 52 h

Compound: Cc1nn2c(C(C)C)c(C(=O)N[C@H]3CCc4ccccc43)cnc2c1-c1cc(Cl)c(F)c(Cl)c1 [Example 2, (S)-3-(3,5-dichloro-4-fluorophenyl)-N-(2,3-dihydro-1H-inden-1-yl)-7-isopropyl-2-methylpyrazolo[1,5-a]pyrimidine-6-carboxamide]
- clearance ([1]; plasma): 2.33 mL/min/kg
- half-life ([1]; plasma): 19 h

Compound: Cc1nn2c(C(C)C)c(C(=O)N[C@H]3CCOc4ccccc43)cnc2c1-c1ccc(F)c(F)c1 [Example 3, (S)—N-(chroman-4-yl)-3-(3,4-difluorophenyl)-7-isopropyl-2-methylpyrazolo[1,5-a]pyrimidine-6-carboxamide]
- clearance ([1]; plasma): 3 mL/min/kg
- half-life ([1]; plasma): 37.4 h

Compound: O=C(N[C@H]1CCOc2ccccc21)c1cnc2c(-c3cc(Cl)cc(Cl)c3)c(F)ccc2c1N1CC(F)C1 [Example 5, (S)—N-(chroman-4-yl)-8-(3,5-dichlorophenyl)-7-fluoro-4-(3-fluoroazetidin-1-yl)quinoline-3-carboxamide]
- clearance ([1]; plasma): 1.17 mL/min/kg
- half-life ([1]; plasma): 160 h

Compound: O=C(N[C@H]1CCOc2ccccc21)c1cnc2c(-c3cc(F)cc(F)c3F)c(F)ccc2c1[C@H]1C[C@H](F)C1 [Example 9, N—((S)-chroman-4-yl)-7-fluoro-4-((1R,3S)-3-fluorocyclobutyl)-8-(2,3,5-trifluorophenyl)quinoline-3-carboxamide]
- dogs with positive test results in the modified Knott and heartworm antigen tests (Dirofilaria immitis [2]; 30 mg/kg subcutaneous 90 days after infection, 150, 180 and 210 days after infection): None of the dogs
- effectiveness at preventing the development of patent adult heartworm (Dirofilaria immitis [2]; dogs, 30 mg/kg subcutaneous, administered 90 days after experimental infection): 100%
- Fecal egg count reduction upon treatment (Ancylostoma caninum [3]): > 90%
- Mean Fecal Egg Count (Ancylostoma caninum [3]; 15 days after infection): 0 EPG
- % Reduction of Mean Fecal Egg Count (Ancylostoma caninum [3]; 15 days after infection, vs control): 100%
- Mean Fecal Egg Count (Ancylostoma caninum [3]; 20 days after infection): 0 EPG
- % Reduction of Mean Fecal Egg Count (Ancylostoma caninum [3]; 20 days after infection, vs control): 100%
- Mean Fecal Egg Count (Ancylostoma caninum [3]; 25 days after infection): 25 EPG
- % Reduction of Mean Fecal Egg Count (Ancylostoma caninum [3]; 25 days after infection, vs control): 93.75%
- Mean Fecal Egg Count (Ancylostoma caninum [3]; 30 days after infection): 0 EPG
- % Reduction of Mean Fecal Egg Count (Ancylostoma caninum [3]; 30 days after infection, vs control): 100%
- Mean Number of Recovered Hookworms (Ancylostoma caninum [3]; after final FEC): 0.0
- % Reduction of Mean Number of Recovered Hookworms (Ancylostoma caninum [3]; vs control): 100%
- Mean Fecal Egg Count (Ancylostoma caninum [4]; [6]): 0 EPG
- % Reduction of Mean Fecal Egg Count (Ancylostoma caninum [4]; [6]): 100%
- Mean Fecal Egg Count (Ancylostoma caninum [4]; [7]): 0 EPG
- % Reduction of Mean Fecal Egg Count (Ancylostoma caninum [4]; [7]): 100%
- Mean Fecal Egg Count (Ancylostoma caninum [4]; [8]): 0 EPG
- % Reduction of Mean Fecal Egg Count (Ancylostoma caninum [4]; [8]): 100%
- Mean Fecal Egg Count (Ancylostoma caninum [4]; [9]): 0 EPG
- % Reduction of Mean Fecal Egg Count (Ancylostoma caninum [4]; [9]): 100%
- Mean Number of Recovered Hookworms (Ancylostoma caninum [4]; [10]): 0
- % Reduction of Mean Number of Recovered Hookworms (Ancylostoma caninum [4]; [10]): 100%
- Mean Fecal Egg Count (Ancylostoma caninum [4]; [11]): 0 EPG
- % Reduction of Mean Fecal Egg Count (Ancylostoma caninum [4]; [11]): 100%
- Mean Fecal Egg Count (Ancylostoma caninum [4]; [12]): 0 EPG
- % Reduction of Mean Fecal Egg Count (Ancylostoma caninum [4]; [12]): 100%
- Mean Fecal Egg Count (Ancylostoma caninum [4]; [13]): 0 EPG
- % Reduction of Mean Fecal Egg Count (Ancylostoma caninum [4]; [13]): 100%
- Mean Fecal Egg Count (Ancylostoma caninum [4]; [14]): 0 EPG
- % Reduction of Mean Fecal Egg Count (Ancylostoma caninum [4]; [14]): 100%
- Mean Number of Recovered Hookworms (Ancylostoma caninum [4]; [15]): 0
- % Reduction of Mean Number of Recovered Hookworms (Ancylostoma caninum [4]; [15]): 100%
- duration of 100% protection from infections with hookworm larvae (Ancylostoma caninum [4]; cohorts B and C, 30 mg/kg subcutaneous): at least 60 days
- protection from infections with hookworm larvae (Ancylostoma caninum [4]; cohorts B and C, 30 mg/kg subcutaneous, FECs and expelled worm counts, for at least 60 days): 100%
- dogs with a positive heartworm antigen test result (Dirofilaria immitis [5]; 30 mg/kg subcutaneous 90 days before second infection, 149 days after second infection): 50%
- residual protection from infection with Dirofilaria immitis (Dirofilaria immitis [5]; dogs, 30 mg/kg subcutaneous prior to second infection): significant residual protection
- reduction in worm burden in the heart and lungs relative to the negative control group (Dirofilaria immitis [5]; dogs, 30 mg/kg subcutaneous prior to second infection, necropsy approx. 5 months after infection, all dogs): > 80%
- clearance ([1]; plasma): 1.17 mL/min/kg
- half-life ([1]; plasma): 190 h

Compound: (S)—N-(2,3-Dihydro-1H-inden-1-yl)-3-(3-fluorophenyl)-7-isopropyl-2-methylpyrazolo[1,5-a]pyrimidine-6-carboxamide [Example 13]
- Plasma Clearance, geometric mean [1]: 9.33 mL/min/kg
- Half-life (h/Form) iv, geometric mean ([1]; plasma): 45.43 h

The next lines start with the values.

- clearance ([1]; plasma): 11.5 mL/min/kg
- half-life ([1]; plasma): 43.6 h
Compound: O=C(N[C@H]1CCOc2ccccc21)c1cnc2c(-c3cc(F)cc(F)c3F)c(F)ccc2c1C1CS(=O)(=O)C1 [Example 8, N-[(4S)-3,4-dihydro-2H-chromen-4-yl]-4-(1,1-dioxidothietan-3-yl)-7-fluoro-8-(2,3,5-trifluorophenyl)quinoline-3-carboxamide]

- clearance ([1]; plasma): 6.17 mL/min/kg
- half-life ([1]; plasma): 24.7 h
Compound: Cc1nn2c(C(C)C)c(C(=O)N[C@H]3CCOc4ccccc43)cnc2c1-c1c(F)cccc1Cl [Example 10, (S)-3-(2-chloro-6-fluorophenyl)-N-(chroman-4-yl)-7-isopropyl-2-methylpyrazolo[1,5-a]pyrimidine-6-carboxamide]

- clearance ([1]; plasma): 5 mL/min/kg
- half-life ([1]; plasma): 47.8 h
Compound: O=C(N[C@H]1CCOc2ccccc21)c1cnc2c(-c3cc(F)cc(F)c3F)cccc2c1C1COC1 [Example 11, (S)—N-(chroman-4-yl)-4-(oxetan-3-yl)-8-(2,3,5-trifluorophenyl)quinoline-3-carboxamide]

- clearance ([1]; plasma): 17 mL/min/kg
- half-life ([1]; plasma): 21.4 h
Compound: O=C(N[C@H]1CCOc2ccccc21)c1cnc2c(-c3cc(F)cc(F)c3F)cccc2c1C1CCOCC1 [Example 12, N-[(4S)-3,4-Dihydro-2H-chromen-4-yl]-4-(tetrahydro-2H-pyran-4-yl)-8-(2,3,5-trifluorophenyl)quinoline-3-carboxamide]

- clearance ([1]; plasma): 3 mL/min/kg
- half-life ([1]; plasma): 43.4 h
Compound: O=C(N[C@H]1CCOc2ccccc21)c1cnc2c(-c3cc(F)cc(F)c3F)c(F)ccc2c1C1CCOCC1 [Example 14]
